Patent US12630563B2, “Macrocyclic RIP2-kinase inhibitors” (Oncodesign S.A., priority 2020, dated 2026)

These molecules were tested against T1, recombinant hRIPK2 protein (kinase domain aa 1-299-His-tagged) (Homo sapiens, UniProt O43353) (assay: RIPK2 AlphaLISA assay (displacement of bead-bound CZC-8004 from hRIPK2)). Conditions: recombinant hRIPK2 kinase domain 10 nM, 2 h at 23° C.
T1 construct: kinase domain aa 1-299-His-tagged; purchased Life Technologies PR7829A
Type: binding
Excerpt: RIPK2 AlphaLISA® Assay (Amplified Luminescent Proximity Homogeneous Assay)
A non-specific kinase inhibitor (CZC-8004 Cayman #916603-07-1) bound to an acceptor bead (#6772001 PerkinElmer) was mixed to the recombinant hRIPK2 protein (kinase domain aa 1-299-His-tagged—Life Technologies PR7829A) and a Ni2+-tagged donor beads (#AS101D PerkinElmer). In the presence of an inhibitor, the compound beads displacement from hRIPK2 was followed by signal loss. In a 384-well ProxiPlate@ (Perkin Elmer, 6008280) add:
2 μL RIPK2 inhibitor (in DMSO 0.8%).
2 μL human recombinant RIPK2 (10 nM diluted in AlphaLISA buffer 1×).
4 μL Mix of […] 1/1000 in AlphaLISA buffer 1×.
Homogenize using a microtiter plate shaker and incubate for 2 h at 23° C.
Read using EnVision®-Alpha Reader (PerkinElmer) according to manufacturer specifications.

T1 sequence (O43353 1-299): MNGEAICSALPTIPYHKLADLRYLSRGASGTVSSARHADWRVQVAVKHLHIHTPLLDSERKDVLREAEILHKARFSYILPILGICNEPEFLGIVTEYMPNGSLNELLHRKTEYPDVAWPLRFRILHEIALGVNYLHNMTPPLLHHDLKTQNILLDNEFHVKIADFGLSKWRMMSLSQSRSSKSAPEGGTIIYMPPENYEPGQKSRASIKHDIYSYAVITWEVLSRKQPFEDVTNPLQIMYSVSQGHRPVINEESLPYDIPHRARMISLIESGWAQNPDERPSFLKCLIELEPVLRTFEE

Question: Which IC50 does the source give for `[2H]C([2H])([2H])Oc1cc2cc(c1)-c1cnn3cc(OC)c(nc13)OC[C@@H]1C[C@@H](OCCOC)C(=O)N1CCN2` [Example 141, (12R,14S)-4-(^2H3)methoxy-18-methoxy-12-(2-methoxyethoxy)-16-oxa-7,10,20,21,24-pentaazapentacyclo[15.5.2.1^2,6.0^10,^14.0^20,^23]pentacosa-1(23),2,4,6(25),17(24),18,21-heptaen-11-one] here?
Answer: < 10 nM

Question: How did the IC50 turn out when `CO[C@@H]1C[C@H]2COc3ccn4ncc(c4n3)-c3cc(cc(-c4ncno4)c3)NCCN2C1=O` [Example 109, (12R,14S)-12-methoxy-4-(1,2,4-oxadiazol-5-yl)-16-oxa-7,10,20,21,24-pentaazapentacyclo[15.5.2.1^2,6.0^1°,^14.0^2°,^23]pentacosa-1(23),2(25),3,5,17(24),18,21-heptaen-11-one] was run?
Answer: < 10 nM

Question: With `CO[C@@H]1C[C@H]2COc3nc4c(cnn4cc3-c3cnn(C)c3C)-c3cc(F)cc(c3)NCCN2C1=O` [Example 68] as the molecule, how does the IC50 read?
Answer: < 10 nM

Question: With `CO[C@@H]1C[C@H]2COc3ccn4ncc(c4n3)-c3cc(cc(-c4ncon4)c3)NCCN2C1=O` [Example 76, (12R,14S)-12-methoxy-4-(1,2,4-oxadiazol-3-yl)-16-oxa-7,10,20,21,24-pentaazapentacyclo[15.5.2.1^2,6.0^1°,^14.0^2°,^23]pentacosa-1(23),2(25),3,5,17(24),18,21-heptaen-11-one] as the molecule, how does the IC50 read?
Answer: < 10 nM

Question: `CO[C@@H]1C[C@H]2COc3ccn4ncc(c4n3)-c3cc(F)cc(c3)N(C(C)=O)CCN2C1=O` [Example 74, (12R,14S)-7-acetyl-4-fluoro-12-methoxy-16-oxa-7,10,20,21,24-pentaazapentacyclo[15.5.2.1^2,6.0^1°,^14.0^2°,^23]pentacosa-1(23),2,4,6(25),17(24),18,21-heptaen-11-one] was tested. Which IC50 did it give?
Answer: 10 to 100 nM

Question: For `CO[C@@H]1C[C@H]2COc3ccn4ncc(c4n3)-c3cc(cc(-n4ncc(C)c4C)c3)NCCN2C1=O` [Example 84, (12R,14S)-4-(4,5-dimethyl-1H-pyrazol-1-yl)-12-methoxy-16-oxa-7,10,20,21,24-pentaazapentacyclo[15.5.2.1^2,6.0^1°,^14.0^2°,^23]pentacosa-1(23),2(25),3,5,17(24),18,21-heptaen-11-one], which IC50 is on record?
Answer: < 10 nM

Question: `COCCO[C@@H]1C[C@H]2COc3ccn4ncc(c4n3)-c3cc(F)cc(c3)NCCN2C1=O` [Example 35, (12R,14S)-4-fluoro-12-(2-methoxyethoxy)-16-oxa-7,10,20,21,24-pentaazapentacyclo[15.5.2.1^2,6.01^0,^14.0^20,23]pentacosa-1(23),2,4,6(25),17(24),18,21-heptaen-11-one] was tested. Which IC50 did it give?
Answer: < 10 nM

Question: `O=C1[C@H](F)C[C@H]2COc3ccn4ncc(c4n3)-c3cc(F)cc(c3)NCCN12` [Example 26, (12R,14S)-4,12-difluoro-16-oxa-7,10,20,21,24-pentaazapentacyclo[15.5.2.1^2,6.0^10,^14.0^20,^23]pentacosa-1(23),2,4,6(25),17(24),18,21-heptaen-11-one] was tested. Which IC50 did it give?
Answer: < 10 nM

Question: `COc1cc2cc(c1)-c1cnn3cc(OC)c(nc13)OC[C@@H]1C[C@@H](O)C(=O)N1CCN2` [Example 143, (12R,14S)-12-hydroxy-4,18-dimethoxy-16-oxa-7,10,20,21,24-pentaazapentacyclo[15.5.2. 1^2,6.0^10,^14.0^20,^23]pentacosa-1(23),2(25),3,5,17(24),18,21-heptaen-11-one] was tested. Which IC50 did it give?
Answer: < 10 nM

Question: `CO[C@@H]1C[C@H]2COc3nc4c(cnn4cc3-c3cn(C)nc3C)-c3cc(F)cc(c3)NCCN2C1=O` [Example 69] was tested. Which IC50 did it give?
Answer: < 10 nM

Question: With `CCOc1cc2cc(c1)-c1cnn3ccc(nc13)OC[C@@H]1C[C@@H](OC)C(=O)N1CCN2` [Example 7, (12R,14S)-4-ethoxy-12-methoxy-16-oxa-7,10,20,21,24-pentaazapentacyclo[15.5.2.1^2,6.0^10,^14.0^20,^23]pentacosa-1(23),2(25),3,5,17(24),18,21-heptaen-11-one] as the molecule, how does the IC50 read?
Answer: < 10 nM
